According to ChEMBL document CHEMBL4000244, “Probing A-form DNA: A fluorescent aminosugar probe and dual recognition by anthraquinone-neomycin conjugates” (Bioorg Med Chem, 2017):
Active and inactive are the calls of the source. The rule behind the calls is not given here.

Legend:
[1] = Binding affinity to 5'-GCGGGCCC-3' DNA hairpin assessed as change in fluorescence intensity at 1 uM after 45 mins by fluorescence quenching analysis relative to control
[2] = Binding affinity to 5'-GGGGGCCC-3' DNA hairpin assessed as change in fluorescence intensity at 1 uM after 45 mins by fluorescence quenching analysis relative to control
[3] = Binding affinity to 5'-CCCCCGCC-3' DNA hairpin assessed as change in fluorescence intensity at 1 uM after 45 mins by fluorescence quenching analysis relative to control
[4] = Binding affinity to 5'-CCCGGGGG-3' DNA hairpin assessed as change in fluorescence intensity at 1 uM after 45 mins by fluorescence quenching analysis relative to control
[5] = Binding affinity to 5'-CGGGGGCC-3' DNA hairpin assessed as change in fluorescence intensity at 1 uM after 45 mins by fluorescence quenching analysis relative to control
[6] = Binding affinity to 5'-CGGCCCGG-3' DNA hairpin assessed as change in fluorescence intensity at 1 uM after 45 mins by fluorescence quenching analysis relative to control
[7] = Binding affinity to 5'-GGCGCGCC-3' DNA hairpin assessed as change in fluorescence intensity at 1 uM after 45 mins by fluorescence quenching analysis relative to control
[8] = Binding affinity to 5'-GGCCCCGC-3' DNA hairpin assessed as change in fluorescence intensity at 1 uM after 45 mins by fluorescence quenching analysis relative to control
[9] = Binding affinity to 5'-CGGGCGGG-3' DNA hairpin assessed as change in fluorescence intensity at 1 uM after 45 mins by fluorescence quenching analysis relative to control
[10] = Binding affinity to 5'-CCCCCCCG-3' DNA hairpin assessed as change in fluorescence intensity at 1 uM after 45 mins by fluorescence quenching analysis relative to control
[11] = Binding affinity to 5'-CCCCGGGC-3' DNA hairpin assessed as change in fluorescence intensity at 1 uM after 45 mins by fluorescence quenching analysis relative to control
[12] = Binding affinity to 5'-GGGGCCCC-3' DNA hairpin assessed as change in fluorescence intensity at 1 uM after 45 mins by fluorescence quenching analysis relative to control
[13] = Binding affinity to 5'-GCCCCGCC-3' DNA hairpin assessed as change in fluorescence intensity at 1 uM after 45 mins by fluorescence quenching analysis relative to control
[14] = Binding affinity to 5'-CCGGGGCG-3' DNA hairpin assessed as change in fluorescence intensity at 1 uM after 45 mins by fluorescence quenching analysis relative to control
[15] = Binding affinity to 5'-GCGGCCGG-3' DNA hairpin assessed as change in fluorescence intensity at 1 uM after 45 mins by fluorescence quenching analysis relative to control
[16] = Binding affinity to 5'-CCGGCCGG-3' DNA hairpin assessed as change in fluorescence intensity at 1 uM after 45 mins by fluorescence quenching analysis relative to control
[17] = Binding affinity to 5'-GCCGCGGC-3' DNA hairpin assessed as change in fluorescence intensity at 1 uM after 45 mins by fluorescence quenching analysis relative to control
[18] = Binding affinity to 5'-GCGCCCGC-3' DNA hairpin assessed as change in fluorescence intensity at 1 uM after 45 mins by fluorescence quenching analysis relative to control
[19] = Binding affinity to 5'-GCGCCCCG-3' DNA hairpin assessed as change in fluorescence intensity at 1 uM after 45 mins by fluorescence quenching analysis relative to control
[20] = Binding affinity to 5'-GCGCGGGG-3' DNA hairpin assessed as change in fluorescence intensity at 1 uM after 45 mins by fluorescence quenching analysis relative to control
[21] = Binding affinity to 5'-GCGGGGGG-3' DNA hairpin assessed as change in fluorescence intensity at 1 uM after 45 mins by fluorescence quenching analysis relative to control
[22] = Binding affinity to d(G4C4)2 DNA major groove assessed as stabilization of A-from DNA conformation by measuring induction of sharper band at 265 nanometer at drug:DNA molar ratio of 1:1 after 30 mins by CD spectroscopic method
[23] = Binding affinity to 5'-GGCCGGGG-3' DNA hairpin assessed as change in fluorescence intensity at 1 uM after 45 mins by fluorescence quenching analysis relative to control
[24] = Binding affinity to 5'-GGCGCCGC-3' DNA hairpin assessed as change in fluorescence intensity at 1 uM after 45 mins by fluorescence quenching analysis relative to control
[25] = Binding affinity to 5'-CCGCCGGC-3' DNA hairpin assessed as change in fluorescence intensity at 1 uM after 45 mins by fluorescence quenching analysis relative to control
[26] = Binding affinity to 5'-GGCCCGCC-3' DNA hairpin assessed as change in fluorescence intensity at 1 uM after 45 mins by fluorescence quenching analysis relative to control
[27] = Binding affinity to 5'-GCGCCGCC-3' DNA hairpin assessed as change in fluorescence intensity at 1 uM after 45 mins by fluorescence quenching analysis relative to control
[28] = Binding affinity to 5'-CCGCGGGC-3' DNA hairpin assessed as change in fluorescence intensity at 1 uM after 45 mins by fluorescence quenching analysis relative to control
[29] = Binding affinity to 5'-CCCGGGGC-3' DNA hairpin assessed as change in fluorescence intensity at 1 uM after 45 mins by fluorescence quenching analysis relative to control
[30] = Binding affinity to 5'-CGCCCCCG-3' DNA hairpin assessed as change in fluorescence intensity at 1 uM after 45 mins by fluorescence quenching analysis relative to control
[31] = Binding affinity to 5'-GGGCGGGC-3' DNA hairpin assessed as change in fluorescence intensity at 1 uM after 45 mins by fluorescence quenching analysis relative to control
[32] = Binding affinity to 5'-CCCGGGCC-3' DNA hairpin assessed as change in fluorescence intensity at 1 uM after 45 mins by fluorescence quenching analysis relative to control
[33] = Binding affinity to 5'-CGCGCGGC-3' DNA hairpin assessed as change in fluorescence intensity at 1 uM after 45 mins by fluorescence quenching analysis relative to control
[34] = Binding affinity to 5'-GGCGGCCG-3' DNA hairpin assessed as change in fluorescence intensity at 1 uM after 45 mins by fluorescence quenching analysis relative to control
[35] = Binding affinity to 5'-CGGGGGCG-3' DNA hairpin assessed as change in fluorescence intensity at 1 uM after 45 mins by fluorescence quenching analysis relative to control
[36] = Binding affinity to 5'-CCCCGGCC-3' DNA hairpin assessed as change in fluorescence intensity at 1 uM after 45 mins by fluorescence quenching analysis relative to control

Activity [1]: 47.8% | Activity [2]: 34.4% | Activity [3]: 39.1% | Activity [4]: 38.7% | Activity [5]: 38.1% | Activity [6]: 54.4% | Activity [7]: 49% | Activity [8]: 21.3% | Activity [9]: 50.6% | Activity [10]: 19.9% | Activity [11]: 43% | Activity [12]: 15% | Activity [13]: 40.2% | Activity [14]: 37.5% | Activity [15]: 40.9% | Activity [16]: 49.1% | Activity [17]: 56.3% | Activity [18]: 50.3% | Activity [19]: 44.1% | Activity [20]: 43.1% | Activity [21]: 38.1% | Activity [22]: Active | Activity [23]: 38.1% | Activity [24]: 48.4% | Activity [25]: 52.6% | Activity [26]: 31.2% | Activity [27]: 50.4% | Activity [28]: 45.7% | Activity [29]: 33.4% | Activity [30]: 31.8% | Activity [31]: 44.1% | Activity [32]: 40.2% | Activity [33]: 43.8% | Activity [34]: 56.4% | Activity [35]: 41.1% | Activity [36]: 37.6%
SMILES: NCC1O[C@H](O[C@H]2[C@@H](O)[C@H](O[C@@H]3[C@@H](O)[C@H](N)C[C@H](N)[C@H]3O[C@H]3O[C@H](CN)[C@@H](O)[C@H](O)[C@H]3N)O[C@@H]2CSCCNC(=O)CCSCC(=O)Nc2ccc(-c3c4ccc(=O)cc-4oc4cc(O)ccc34)c(C(=O)O)c2)[C@H](N)[C@@H](O)[C@@H]1O (stereo partly specified)
